ChEMBL document CHEMBL1201862, “PubChem BioAssay data set” (2004)
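Values below derive from 48-hour exposures of cells grown in 96-well plates, with endpoints linearly interpolated between the two concentrations bracketing the appropriate inhibition level. Abbreviation: GI50, concentration required for 50% inhibition of growth.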 The source made the active and inactive calls. No stated cut-off is given here; in the data, active = GI50 up to about 1.1 µM and inactive = higher.

What was measured:
Experiment in all cases: inhibition of tumour cell growth, NCI panel, 48 h
[1] = system: 786-0
[2] = system: A498
[3] = system: A549
[4] = system: ACHN
[5] = system: BT-549
[6] = system: CAKI-1
[7] = system: CCRF-CEM
[8] = system: COLO 205
[9] = system: DLD-1
[10] = system: DMS-114
[11] = system: DU-145
[12] = system: EKVX
[13] = system: HCC 2998
[14] = system: HCT-116
[15] = system: HCT-15
[16] = system: HL-60
[17] = system: HOP-18
[18] = system: HOP-62
[19] = system: HOP-92
[20] = system: HT-29
[21] = system: Hs-578T
[22] = system: IGROV-1
[23] = system: K562
[24] = system: KM-20L2
[25] = system: KM12
[26] = system: LOX IMVI
[27] = system: LXFL 529
[28] = system: M14
[29] = system: M19-MEL
[30] = system: MCF7
[31] = system: MDA-MB-231
[32] = system: MDA-MB-435
[33] = system: MDA-N
[34] = system: MOLT-4
[35] = system: Malme-3M
[36] = system: NCI-H226
[37] = system: NCI-H23
[38] = system: NCI-H460
[39] = system: NCI-H522
[40] = system: NCI/ADR-RES
[41] = system: OVCAR-3
[42] = system: OVCAR-4
[43] = system: OVCAR-5
[44] = system: OVCAR-8
[45] = system: PC-3
[46] = system: RPMI-8226
[47] = system: RXF 393
[48] = system: SF-268
[49] = system: SF-295
[50] = system: SF-539
[51] = system: SK-MEL-28
[52] = system: SK-MEL-2
[53] = system: SK-MEL-5
[54] = system: SK-OV-3
[55] = system: SN12C
[56] = system: SNB-19
[57] = system: SNB-75
[58] = system: SNB-78
[59] = system: SR
[60] = system: SW-620
[61] = system: T47D
[62] = system: TK-10
[63] = system: U-251
[64] = system: UACC-257
[65] = system: UACC-62
[66] = system: UO-31
[67] = system: XF498
[68] = system: DMS-273

Q: `O=c1[nH]c(=O)n(C2OC(CO)C(O)C(O)C2O)cc1F` (configuration not stated) was tested. Which GI50 [1] did it give?
A: > 100 µM (inactive)

Q: And the GI50 [2]?
A: > 100 µM (inactive)

Q: And the GI50 [3]?
A: > 100 µM (inactive)

Q: What about the GI50 [4] of the same molecule?
A: > 100 µM (inactive)

Q: And the GI50 [5]?
A: > 100 µM (inactive)

Q: What about the GI50 [6] of the same molecule?
A: > 100 µM (inactive)

Q: What about the GI50 [7] of the same molecule?
A: > 100 µM (inactive)

Q: What about the GI50 [8] of the same molecule?
A: > 100 µM (inactive)

Q: And the GI50 [9]?
A: > 100 µM (inactive)

Q: What about the GI50 [10] of the same molecule?
A: > 100 µM (inactive)

Q: And the GI50 [11]?
A: > 100 µM (inactive)

Q: And the GI50 [12]?
A: > 100 µM (inactive)

Q: What about the GI50 [13] of the same molecule?
A: > 100 µM (inactive)

Q: And the GI50 [14]?
A: > 100 µM (inactive)

Q: What about the GI50 [15] of the same molecule?
A: > 100 µM

Q: And the GI50 [16]?
A: > 64.4 µM (inactive)

Q: And the GI50 [17]?
A: > 100 µM (inactive)

Q: What about the GI50 [18] of the same molecule?
A: > 100 µM (inactive)

Q: And the GI50 [19]?
A: > 12.7 µM (inactive)

Q: And the GI50 [20]?
A: > 100 µM (inactive)

Q: And the GI50 [21]?
A: > 100 µM (inactive)

Q: What about the GI50 [22] of the same molecule?
A: > 100 µM (inactive)

Q: And the GI50 [23]?
A: > 100 µM (inactive)

Q: What about the GI50 [24] of the same molecule?
A: > 100 µM (inactive)

Q: And the GI50 [25]?
A: > 100 µM (inactive)

Q: What about the GI50 [26] of the same molecule?
A: > 100 µM (inactive)

Q: And the GI50 [27]?
A: > 100 µM (inactive)

Q: And the GI50 [28]?
A: > 100 µM (inactive)

Q: And the GI50 [29]?
A: > 100 µM (inactive)

Q: And the GI50 [30]?
A: > 100 µM (inactive)

Q: What about the GI50 [31] of the same molecule?
A: > 100 µM (inactive)

Q: What about the GI50 [32] of the same molecule?
A: > 100 µM (inactive)

Q: And the GI50 [33]?
A: > 100 µM (inactive)

Q: And the GI50 [34]?
A: > 100 µM (inactive)

Q: And the GI50 [35]?
A: > 100 µM (inactive)

Q: And the GI50 [36]?
A: > 100 µM (inactive)

Q: And the GI50 [37]?
A: > 100 µM (inactive)

Q: And the GI50 [38]?
A: > 100 µM (inactive)

Q: What about the GI50 [39] of the same molecule?
A: > 100 µM (inactive)

Q: And the GI50 [40]?
A: > 100 µM (inactive)

Q: What about the GI50 [41] of the same molecule?
A: > 100 µM (inactive)

Q: And the GI50 [42]?
A: > 100 µM (inactive)

Q: And the GI50 [43]?
A: > 100 µM (inactive)

Q: What about the GI50 [44] of the same molecule?
A: > 100 µM (inactive)

Q: What about the GI50 [45] of the same molecule?
A: > 100 µM (inactive)

Q: What about the GI50 [46] of the same molecule?
A: > 100 µM (inactive)

Q: What about the GI50 [47] of the same molecule?
A: > 76.2 µM (inactive)

Q: What about the GI50 [48] of the same molecule?
A: > 100 µM (inactive)

Q: What about the GI50 [49] of the same molecule?
A: > 100 µM (inactive)

Q: And the GI50 [50]?
A: > 100 µM (inactive)

Q: And the GI50 [51]?
A: > 100 µM (inactive)

Q: And the GI50 [52]?
A: > 100 µM (inactive)

Q: And the GI50 [53]?
A: > 100 µM (inactive)

Q: And the GI50 [54]?
A: > 100 µM (inactive)

Q: What about the GI50 [55] of the same molecule?
A: > 100 µM (inactive)

Q: What about the GI50 [56] of the same molecule?
A: > 100 µM (inactive)

Q: And the GI50 [57]?
A: > 88.5 µM (inactive)

Q: What about the GI50 [58] of the same molecule?
A: > 100 µM (inactive)

Q: And the GI50 [59]?
A: > 100 µM (inactive)

Q: And the GI50 [60]?
A: > 100 µM (inactive)

Q: And the GI50 [61]?
A: > 100 µM (inactive)

Q: And the GI50 [62]?
A: > 100 µM (inactive)

Q: And the GI50 [63]?
A: > 100 µM (inactive)

Q: And the GI50 [64]?
A: > 100 µM (inactive)

Q: And the GI50 [65]?
A: > 100 µM (inactive)

Q: And the GI50 [66]?
A: > 100 µM (inactive)

Q: And the GI50 [67]?
A: > 100 µM (inactive)

Q: How did the GI50 [1] turn out when `O=C(O)Cc1ccc2c(c1O)C(=O)c1c(ccc(CC(=O)O)c1O)C2=O` was run?
A: > 100 µM (inactive)

Q: What about the GI50 [2] of the same molecule?
A: > 100 µM (inactive)

Q: And the GI50 [3]?
A: > 100 µM (inactive)

Q: What about the GI50 [4] of the same molecule?
A: > 100 µM (inactive)

Q: What about the GI50 [6] of the same molecule?
A: > 100 µM (inactive)

Q: What about the GI50 [7] of the same molecule?
A: > 100 µM (inactive)

Q: And the GI50 [8]?
A: > 100 µM (inactive)

Q: And the GI50 [9]?
A: > 100 µM (inactive)

Q: What about the GI50 [10] of the same molecule?
A: > 100 µM (inactive)

Q: What about the GI50 [68] of the same molecule?
A: > 100 µM (inactive)

Q: What about the GI50 [12] of the same molecule?
A: > 100 µM (inactive)

Q: And the GI50 [13]?
A: > 100 µM (inactive)

Q: And the GI50 [14]?
A: > 100 µM (inactive)

Q: What about the GI50 [15] of the same molecule?
A: > 100 µM

Q: What about the GI50 [16] of the same molecule?
A: > 100 µM (inactive)

Q: What about the GI50 [17] of the same molecule?
A: > 100 µM (inactive)

Q: And the GI50 [18]?
A: > 100 µM (inactive)

Q: And the GI50 [19]?
A: > 100 µM (inactive)

Q: What about the GI50 [20] of the same molecule?
A: > 100 µM (inactive)

Q: And the GI50 [22]?
A: > 100 µM (inactive)

Q: What about the GI50 [23] of the same molecule?
A: > 100 µM (inactive)

Q: And the GI50 [24]?
A: > 100 µM (inactive)

Q: And the GI50 [25]?
A: > 100 µM (inactive)

Q: And the GI50 [26]?
A: > 100 µM (inactive)

Q: What about the GI50 [27] of the same molecule?
A: > 100 µM (inactive)

Q: What about the GI50 [28] of the same molecule?
A: > 100 µM (inactive)

Q: And the GI50 [29]?
A: > 100 µM (inactive)

Q: What about the GI50 [34] of the same molecule?
A: > 100 µM (inactive)

Q: And the GI50 [35]?
A: > 100 µM (inactive)

Q: What about the GI50 [36] of the same molecule?
A: > 100 µM (inactive)

Q: What about the GI50 [37] of the same molecule?
A: > 100 µM (inactive)

Q: And the GI50 [38]?
A: > 100 µM (inactive)

Q: And the GI50 [39]?
A: > 100 µM (inactive)

Q: What about the GI50 [41] of the same molecule?
A: > 100 µM (inactive)

Q: And the GI50 [42]?
A: > 100 µM (inactive)

Q: What about the GI50 [43] of the same molecule?
A: > 100 µM (inactive)

Q: And the GI50 [44]?
A: > 100 µM (inactive)

Q: And the GI50 [46]?
A: > 100 µM (inactive)

Q: What about the GI50 [48] of the same molecule?
A: > 100 µM (inactive)

Q: What about the GI50 [49] of the same molecule?
A: > 100 µM (inactive)

Q: What about the GI50 [50] of the same molecule?
A: > 100 µM (inactive)

Q: What about the GI50 [51] of the same molecule?
A: > 100 µM (inactive)

Q: And the GI50 [52]?
A: > 100 µM (inactive)

Q: What about the GI50 [53] of the same molecule?
A: > 100 µM (inactive)

Q: What about the GI50 [54] of the same molecule?
A: > 100 µM (inactive)

Q: And the GI50 [55]?
A: > 100 µM (inactive)

Q: And the GI50 [56]?
A: > 100 µM (inactive)

Q: What about the GI50 [57] of the same molecule?
A: > 100 µM (inactive)

Q: And the GI50 [58]?
A: > 100 µM (inactive)

Q: What about the GI50 [59] of the same molecule?
A: > 100 µM (inactive)

Q: And the GI50 [60]?
A: > 100 µM (inactive)

Q: What about the GI50 [62] of the same molecule?
A: > 100 µM (inactive)

Q: And the GI50 [63]?
A: > 100 µM (inactive)

Q: And the GI50 [64]?
A: > 100 µM (inactive)

Q: And the GI50 [67]?
A: > 100 µM (inactive)
